Reference: PubChem BioAssay (NCI)
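In this assay, cells in 96-well plates receive the compound at five concentrations for 48 hours. Endpoints are linearly interpolated between the surrounding concentrations. GI50: concentration for 50% inhibition of growth. TGI is the concentration that stops growth completely.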

Tests used:
Experiment in all cases: NCI anticancer screen, dose series, 48 h
[1] = tested on: BT-549 breast
[2] = tested on: NCI-H522 lung
[3] = tested on: CCRF-CEM leukemia
[4] = tested on: SN12C renal
[5] = tested on: MDA-MB-231 breast
[6] = tested on: HL-60(TB) leukemia
[7] = tested on: OVCAR-5 ovarian
[8] = tested on: MCF7 breast
[9] = tested on: LOX IMVI melanoma
[10] = tested on: 786-0 renal
[11] = tested on: HS 578T breast
[12] = tested on: NCI-H226 lung
[13] = tested on: SF-268 CNS
[14] = tested on: RXF 393 renal
[15] = tested on: K-562 leukemia
[16] = tested on: M14 melanoma
[17] = tested on: SK-OV-3 ovarian
[18] = tested on: HCC-2998 colon
[19] = tested on: EKVX NSCLC
[20] = tested on: A549 NSCLC
[21] = tested on: MOLT-4 leukemia
[22] = tested on: HOP-62 NSCLC
[23] = tested on: NCI-H23 lung
[24] = tested on: SNB-75 CNS
[25] = tested on: U251 CNS
[26] = tested on: NCI/ADR-RES ovarian
[27] = tested on: UACC-62 melanoma
[28] = tested on: SK-MEL-2 melanoma
[29] = tested on: PC-3 prostate

Structure (SMILES): COc1ccc2c(c1)c(-c1nc(-c3cn(C)c4ncccc34)cs1)cn2CCCCN1CCOCC1
- GI50 [1]: 2300 nM
- TGI [1]: 10700 nM
- GI50 [2]: 1770 nM
- TGI [2]: 3810 nM
- GI50 [3]: 1020 nM
- TGI [3]: 3230 nM
- GI50 [4]: 3280 nM
- TGI [4]: 9220 nM
- GI50 [5]: 941 nM
- TGI [5]: 2490 nM
- GI50 [6]: 1840 nM
- TGI [6]: 4370 nM
- GI50 [7]: 1680 nM
- TGI [7]: 4030 nM
- GI50 [8]: 1710 nM
- TGI [8]: 3670 nM
- GI50 [9]: 1320 nM
- TGI [9]: 2680 nM
- GI50 [10]: 1570 nM
- TGI [10]: 3440 nM
- GI50 [11]: 1220 nM
- TGI [11]: 5460 nM
- GI50 [12]: 2530 nM
- TGI [12]: 8810 nM
- GI50 [13]: 1490 nM
- TGI [13]: 3300 nM
- GI50 [14]: 1200 nM
- TGI [14]: 2650 nM
- GI50 [15]: 675 nM
- TGI [15]: 1610 nM
- GI50 [16]: 606 nM
- TGI [16]: 1280 nM
- GI50 [17]: 4220 nM
- TGI [17]: 15200 nM
- GI50 [18]: 1730 nM
- TGI [18]: 3770 nM
- GI50 [19]: 1540 nM
- TGI [19]: 4770 nM
- GI50 [20]: 1710 nM
- TGI [20]: 3710 nM
- GI50 [21]: 951 nM
- TGI [21]: 2800 nM
- GI50 [22]: 1760 nM
- TGI [22]: 3640 nM
- GI50 [23]: 2020 nM
- TGI [23]: 5580 nM
- GI50 [24]: 873 nM
- TGI [24]: 2670 nM
- GI50 [25]: 1250 nM
- TGI [25]: 2930 nM
- GI50 [26]: 1720 nM
- TGI [26]: 5050 nM
- GI50 [27]: 1620 nM
- TGI [27]: 3440 nM
- GI50 [28]: 2050 nM
- TGI [28]: 4290 nM
- GI50 [29]: 1120 nM
- TGI [29]: 3260 nM
